Tests used:
[1] = test system: human iPS-derived neuroprecursors; test: Differentiation of human iPS-derived neuroprecursors into MBP+ oligodendrocytes; format: cell-based; conditions: 1 μM in minimal medium, p<0.05
Description: NPC bearing a doxycycline inducible polycistronic construct containing SOX10, OLIG2 and NKX6.2^29 in a human safe harbor (passages 10 to 25) were singularized on day −3 by treatment with Accutase and plated on Matrigel-coated 12-well plates at a density of 100.000 cells per well in N2B27-medium containing equal parts of neurobasal (Invitrogen) and DMEM-F12 medium (Invitrogen) with 1:100 B27 supplement lacking vitamin A (Invitrogen), 1:200 N2 supplement (Invitrogen), 1% penicillin/streptomycin/glutamine (PSG), 3 μM CHIR99021 (Axon Medchem), 150 μM ascorbic acid and 0.5 μM SAG. The next day medium was changed to N2B27-medium containing 1 μg/ml doxycycline. On DO medium was changed to glial-induction medium (GIM) consisting of DMEM-F12 with 1:100 B27 supplement lacking vitamin A, 1:200 N2 supplement, 1% PSG, 1 μM SAG, 10 ng/mL NT3 (Peprotech), 10 ng/mL IGF-I (Peprotech), 200 μM AA (Sigma), 1:1000 Trace Elements B (Corning). For full medium conditions 10 ng/ml T3 was added. On Day 2 medium was changed to glial-differentiation medium (GDM) comprising DMEM-F12 with 1:100 B27 supplement lacking vitamin A, 1:200 N2 supplement, 1% PSG, 100 μM dbCAMP (Sigma), 100 μM AA, 1:1000. For full medium conditions 60 ng/mL T3, Trace Elements B 10 ng/mL, IGF-I, 10 ng/mL and NT3 were added to the culture. GDM was changed every other day. On day 7 cells were detached by treatment with Accutase and re-plated on laminin coated 48-well plates at densities of 10.000-12.000 cells per well. After 24 h cells were treated in minimal medium with either vehicle alone [0.01% (vol/vol) DMSO] as a negative control, 60 ng/mL T3 as a positive control, or with a drug candidate dissolved in DMSO. Medium was changed every other day. On D16 doxycycline was removed from the medium. Cells were fixed on D21 and analyzed via immunocytochemistry.
Immunocytochemistry. Cells were initially fixed with 4% PFA treatment for 20 min, RT. Following three washes with PBS cells were incubated with blocking solution containing 5% normal goat serum (NGS) and 5% FCS (fetal calf serum) in PBS for 30 min at RT to prevent unspecific binding of the antibodies. To detect intracellular antigens cells were permeabilized by adding 0.5% Triton X-100 to the Blocking-solution. Cells treated with Triton X-100 were washed three times with PBS each time for 5 min at RT. Primary antibodies (rat anti-MBP,1:50, Abcam, AB7349) were applied overnight, 4° C., in blocking solution. The next day cells were washed 3 times with PBS at RT, and afterwards incubated with secondary antibodies (AF488 Alexa Fluor anti-rat (goat), 1:500, Jackson/Dianova, #112-545-167) diluted in PBS for 1 h at RT. Secondary antibodies were subsequently removed by washing 3 times with PBS. Afterwards PBS containing a Dapi staining for nuclei was added for 5 minutes and afterwards washed off with PBS. Cells were kept at 4° C. until imaging.
Imaging and evaluation. From each condition (triplicates) 20-30 pictures were taken randomly chosen by the Dapi-signal. Cell numbers were determined by using an ImageJ Macro to count the nuclei whereas MBP positive cells were subsequently counted manually in black and white images.
The effect on oligodendroglial differentiation of 32 compounds (“Front runners”) was tested. Induced pluripotent stem cells in which the transcription factors SOX10, OLIG2, NKX6.2 were inserted in a doxycycline inducible manner into a human safe harbor were differentiated into neural stem cells. Differentiation into oligodendrocytes was induced by addition of doxycycline. Cells were cultured either in a minimal medium (MM) (negative control) or in MM with the different compounds at a concentration of 1 μM. Addition of T3 to the minimal medium served as a positive control.

[2] = test system: rat oligodendrocyte progenitor CG4 line; test: Differentiation assay on rat oligodendrocyte progenitor CG4 line (HCS, mCherry+); format: cell-based; conditions: secondary screen of 49 selected compounds, 1 μM, 5 days
Description: Primary validation on CG4 line toxicity and differentiation. An innovative OPC line was developed for fast and reliable high content screening (HCS) of small compounds inducing oligodendrocyte differentiation. The line was genetically engineered by lentiviral transduction of rat CG4 cells (PubMed=1613821; DOI=10.1002/jnr.490310125; Louis J. C., Magal E., Muir D., Manthorpe M., Varon S.; CG-4, a new bipotential glial cell line from rat brain, is capable of differentiating in vitro into either mature oligodendrocytes or type-2 astrocytes. J. Neurosci. Res. 31:193-204(1992) to express mCherry fluorescent reporter (Evercooren, Anne & Avellana-Adalid, V. & Vitry, Sandrine & Nait-Oumesmar, Brahim & Lachapelle, Francois. (1997). Expansion of Oligodendrocyte Progenitors for Myelin Repair. 10.1007/978-1-4615-5949-8_21) in mature oligodendrocytes only, and EGFP at all stage of the oligodendroglial lineage: both the generation of mature oligodendrocytes (wmNl-mCherry) and the morphological changes associated with differentiation (CMV-EGFP) can be therefore monitored in a single assay. mCherry expression occurred only in O4+/GalC+ differentiated oligodendrocytes and GFP was ubiquitously expressed at all developmental stages. The line so obtained was validated using compounds with well-established effects on oligodendrocyte differentiation (cAMP and T3). Cell-based assay was standardized on the HCS platform (ArrayScanXTI, Brain and Spine Institute (Paris), validating the pro-differentiation effects of clemastine^27 and 9cis-retinoic acid.^28 For HCS validation of 274 compounds identified through in silico screen, double-fluo CG4 line cells were plated in 96 well-plates, 6500 cells/cm^2 and left for 24 h in proliferation. The other day, compounds were added (1 μM) for next 5 days of differentiation, with ⅔ medium changed after 3 days. 9-cis Retinoic Acid (9cis-RA; […]) served as a positive control, negative controls were basal (N1) medium and vehicle (basal+0.1% DMSO). Each compound was tested in triplicate and were imaged with ArrayScanXTI system (35 fields/well) after 5 days of differentiation.
FIG. 4 provides a schematic representation of High Content Screening (HCS) validation of the 274 compounds identified through in silico screening using CG4 line. […] In addition, the whole short list of 160 non-toxic compounds were screened using the CG4 high content phenotypic assay to further confirm the data from primary screening and to potentially select additional compounds with pro-myelinating activities. From this screening of the short list, 49 hit compounds were identified that increase differentiation either of CG4 cells or primary OPCs (FIG. 6).

[3] = test system: primary murine spinal cord culture; test: Myelinating cell cultures from primary murine spinal cord; format: cell-based, mouse; conditions: 1 μM
Description: Single cell suspensions are prepared from spinal cord of mouse embryos (E13) (adapted from Thomson, 2008) and 1.5×10^5 cells/well were plated into 96 well plates. Over time, these cultures mature and form axons, which later myelinate. Using spinal cord tissue facilitates the quantification of mature MBP+ oligodendrocytes and newly formed myelin by in-house high-content imaging system (Operetta High Content Imaging System, Perkin Elmer) with a 20× lens. From each well, 25 fields in a 5×5 matrix were scanned. Thirty-two “Front Runners” compounds were tested in replicates of five at 1 μM/DMSO, while T3, benzotropine and clemastine were used as positive controls, DMSO as negative/solvent control. Two experimental paradigms were applied: “Early treatment”: exposure to experimental agent from DIV7 to DIV14; “Late treatment”: exposure to experimental agent from DIV14-DIV21. On DIV21, cultures were fixed and stained (myelin: MBP, axons: NF200; nuclei: Hoechst). Imaging data were analysed using CellProfiler and in-house generated analysis pipeline.
Thirty-two “Front Runners” compounds were tested in replicates of five at 1 μM/DMSO, while T3, benztropine and clemastine were used as positive controls, DMSO as negative/solvent control. Two experimental paradigms were applied: “Early treatment”: exposure to experimental agent from DIV7 to DIV14; “Late treatment”: exposure to experimental agent from DIV14-DIV21. […] In “Late treatment” paradigm in myelin area evaluation were identified Vanoxerine, Roxadustat, Tamibarotene, Drinabant, Progesterone, Saracatinib. In quantification of myelinated axons were identified Vanoxerine, Drinabant, Roxadustat.

rat primary OPC cultures = test: Differentiation of rat primary OPC into MBP+ OLs; format: cell-based; conditions: 96 h, 4 days of differentiation, read-out: MBP+ differentiation (MBP+/SOX10+ OLs plus compounds / plus basal medium)
Description: Secondary validation on primary rat OPC differentiation. Re-validation of the best performing compounds promoting OPC differentiation (fold change >1.5) was performed on primary rat OPC cultures in 96 well-plate run in triplicates by triple immunolabeling for CNPase, MBP and SOX10 as a readout. Compounds at […] were added for 4 days of differentiation and then cell cultures were imaged with ArrayScanXTI platform, number of MBP+OLs were quantified by semi-automated software. Basal medium served as a negative control, 9 cis-RA ([…]) was a positive control.
Re-validation of the 49 compounds selected from the short list (160 compounds) using rat primary OPC cultures (compounds tested in triplicates in 3 independent experiments. The secondary validation screen of these compounds performed on rat primary OPC cultures selected 17 best lead compounds with a pro-differentiation activity (MBP+/SOX10+OLs plus compounds/MBP+SOX10+ plus basal medium fold increase) induced a strong differentiation into MBP+OLs (fold increase >1.6). Results are shown in FIG. 7.

Row | SMILES | differentiation into MBP+ oligodendrocytes [1] | CG4 differentiation compared with 9cis-RA positive control [2] | myelin area ([3]; Early treatment DIV7 to DIV14) | myelin area ([3]; Late treatment DIV14-DIV21) | quantification of myelinated axons ([3]; Late treatment DIV14-DIV21) | differentiation into MBP+ oligodendrocytes ([1]; listed as Drinibant) | fold induction at 1 µM (rat primary OPC cultures) | quantification of myelinated axons ([3]; Early treatment DIV7 to DIV14)
1 | Cc1c(F)cccc1NC(=O)Nc1ccc(Cl)c(S(=O)(=O)[C@H]2CCCNC2)c1O [Danirixin] | promote significantly (p<0.05) the differentiation into MBP+ oligodendrocytes | promoting differentiation significantly higher than 9cis-RA positive control |  |  |  |  |  | 
2 | CS(=O)(=O)N(c1cc(F)cc(F)c1)C1CN(C(c2ccc(Cl)cc2)c2ccc(Cl)cc2)C1 [Drinabant] | promote significantly the differentiation into MBP+ oligodendrocytes | promoting differentiation significantly higher than 9cis-RA positive control | identified | identified | identified | promote significantly (p<0.05) the differentiation into MBP+ oligodendrocytes |  | 
3 | Cc1ccc(C(=O)Nc2ccc(Oc3cc4cnn(C)c4cc3-c3cn[nH]c3)c(F)c2)c(=O)n1-c1ccc(F)cc1 [Merestinib] | promote significantly (p<0.05) the differentiation into MBP+ oligodendrocytes | promoting differentiation significantly higher than 9cis-RA positive control |  |  |  |  |  | 
4 | CCNC(=O)C1CC(F)(c2ccc(CN3CCCC3)c(F)c2)C1 (stereo not drawn) [PF-03654746] | promote significantly (p<0.05) the differentiation into MBP+ oligodendrocytes | promoting differentiation significantly higher than 9cis-RA positive control | identified |  |  |  |  | 
5 | CCC/N=C1\S/C(=C\c2ccc(OC[C@H](O)CO)c(Cl)c2)C(=O)N1c1ccccc1C [Ponesimod] | promote significantly (p<0.05) the differentiation into MBP+ oligodendrocytes | promoting differentiation significantly higher than 9cis-RA positive control | identified |  |  |  |  | 
6 | CNC(=O)c1cc(COc2nnc(Nc3ccc(Cl)cc3)c3ccoc23)ccn1 [Telatinib] | promote significantly (p<0.05) the differentiation into MBP+ oligodendrocytes | promoting differentiation significantly higher than 9cis-RA positive control |  |  |  |  | > 1.6 | 
7 | Fc1ccc(C(OCCN2CCN(CCCc3ccccc3)CC2)c2ccc(F)cc2)cc1 [Vanoxerine] |  | promoting differentiation significantly higher than 9cis-RA positive control | identified | identified | identified |  |  | identified

Reference: US20240148745A1, “COMPOUNDS FOR USE IN PROGRESSIVE MULTIPLE SCLEROSIS” (FONDAZIONE CENTRO SAN RAFFAELE, priority 2021, published 2024)
